# A compilation of properties of binary mixtures (doi:10.1021/acs.jced.0c00740)
# Experiment: xn = mol fraction of the nth substance listed
# Conditions: 101 kPa
smiles,measurement,setting,value
C[NH+](C)C.O=S(=O)([N-]S(=O)(=O)C(F)(F)F)C(F)(F)F + N#CCCCC#N,viscosity,"278 K, x1 = 0.2167",23 mPa·s
same,viscosity,"283 K, x1 = 0.2167",18.87 mPa·s
same,viscosity,"293 K, x1 = 0.2167",13.35 mPa·s
same,viscosity,"303 K, x1 = 0.2167",9.89 mPa·s
same,viscosity,"308 K, x1 = 0.2167",8.64 mPa·s
same,viscosity,"313 K, x1 = 0.2167",7.609 mPa·s
same,viscosity,"323 K, x1 = 0.2167",6.028 mPa·s
same,viscosity,"328 K, x1 = 0.2167",5.417 mPa·s
same,viscosity,"333 K, x1 = 0.2167",4.899 mPa·s
same,viscosity,"338 K, x1 = 0.2167",4.457 mPa·s
same,viscosity,"343 K, x1 = 0.2167",4.07 mPa·s
same,viscosity,"348 K, x1 = 0.2167",3.741 mPa·s
C[S+](C)C.O=S(=O)([N-]S(=O)(=O)C(F)(F)F)C(F)(F)F + N#CCCCC#N,viscosity,"283 K, x1 = 0.2085",18.02 mPa·s
same,viscosity,"288 K, x1 = 0.2085",15.07 mPa·s
same,viscosity,"293 K, x1 = 0.2085",12.76 mPa·s
same,viscosity,"298 K, x1 = 0.2085",10.92 mPa·s
same,viscosity,"308 K, x1 = 0.2085",8.25 mPa·s
same,viscosity,"313 K, x1 = 0.2085",7.26 mPa·s
same,viscosity,"323 K, x1 = 0.2085",5.744 mPa·s
same,viscosity,"343 K, x1 = 0.2085",3.871 mPa·s
same,viscosity,"353 K, x1 = 0.2085",3.283 mPa·s
